Laboratory results from patent US20250084065A1, “INHIBITING MONOACYLGLYCEROL LIPASE (MAGL)” (Psy Therapeutics, Inc., priority 2021, published 2025).
Like-named read-outs stand apart in the source and are kept apart here.

How the values were obtained:
human MAGL = biological target: T1, human MAGL (Homo sapiens, UniProt Q99685); assay: MAGL inhibition potency assay with 4-nitrophenyl acetate (4NPA) substrate, absorbance 405 nm; assay type: biochemical; details: read-out: MAGL Potency (Detection Method)
T1 construct: recombinant MAGL enzyme (aa 2-303 RBC, internal preparation)
T1 sequence (Q99685 2-303): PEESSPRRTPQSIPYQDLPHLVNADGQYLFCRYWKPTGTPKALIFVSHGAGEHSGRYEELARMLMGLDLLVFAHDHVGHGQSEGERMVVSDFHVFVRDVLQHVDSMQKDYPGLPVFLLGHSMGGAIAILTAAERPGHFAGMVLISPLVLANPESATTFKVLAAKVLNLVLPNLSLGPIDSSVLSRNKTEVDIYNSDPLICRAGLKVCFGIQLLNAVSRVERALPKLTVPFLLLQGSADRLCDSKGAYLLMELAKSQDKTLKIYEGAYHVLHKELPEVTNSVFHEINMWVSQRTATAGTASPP
Description: Example 22: Measuring MAGL Inhibition Potency (IC50) The potency of certain compounds for inhibiting MAGL were obtained using the following assays. The monoacylglycerol lipase inhibitor screening assay kit from Cayman Chemical was used to measure the MAGL potency for the compounds in Table 6 and Table 7. Cayman's Monoacylglycerol Lipase Inhibitor Screening Assay provides a method for screening human MAGL inhibitors. MAGL hydrolyzes 4-nitrophenylacetate resulting in a yellow product, 4-nitrophenol, with an absorbance of 405-412 nm. MAGL Inhibition was measured by the following assay. Monoacylglycerol Lipase (MAGL) inhibition was measured using recombinant MAGL enzyme (aa 2-303 RBC, internal preparation) and the substrate 4-Nitrophenyl acetate (4NPA) (Sigma-Aldrich, N8130). Hydrolysis of the substrate in the presence of the enzyme was measured by absorbance at 405 nm. 10 μL of assay buffer (10 mM Tris pH 7.5, 1 mM EDTA, 0.9% DMSO) was added to a black 384-well non-binding plate with clear bottom (Greiner, 781906) for each reaction. […] DMSO control wells were included for reference. A 10.8 nM (1.8×) MAGL mix in assay buffer was prepared, with 25 μL added to each reaction well, for a final assay concentration of 6 nM. No enzyme wells received 25 μL of buffer. Plate was incubated at room temperature for 30 minutes. 35 mM solution of 4NPA in methanol was prepared daily. A 4.5×4NPA substrate solution was prepared in assay buffer and 10 μL was added to each reaction well, for a final assay concentration of 0.25 mM. Plate was spun for […] at 100 rpm before measuring absorbance using a CLARIOstar plate reader (BMG Labtech). A kinetic reading at 405 nm was done every minute for 30 minutes. Data was analyzed using the linear slope of the reaction progress curve and the average of the no-enzyme wells (background) was subtracted from the data. The background-subtracted slope data was converted to % activity using the average of wells with enzyme and DMSO vehicle. IC50 were calculated using GraphPad software (Sigmoidal dose response, variable slope equation). […] Table S provides potency measurements of MAGL inhibition measured using the Potency Assay of Example 22 above, with the following modifications described in Table C. [table]

[1] = Pharmacokinetic study of compounds in mice (brain exposure); assay type: in vivo, male C57BL/6 mice; details: oral; for AUC(0-t) / Cmax: male, C57BL/6, mouse, 5 mg/kg, Protocols B-E
Protocol: Example 25: Pharmacokinetic Study of Compounds in Mice
Healthy male C57BL/6 mice (8-12 weeks old) weighing between 17 to 35 g were procured from Global, India. Temperature and humidity were maintained at 22±3° C. and 30-70%, respectively and illumination was controlled to give a sequence of 12 hr light and 12 hr dark cycle. Temperature and humidity were recorded by auto-controlled data logger system. All the animals were provided laboratory rodent diet. Reverse osmosis water treated with ultraviolet light was provided ad libitum.
Protocol A: Twenty-four male mice were divided into two groups as; Group 1: 30 mg/kg/IP; Plasma and brain; Number of animals=12; Animal #1-12. Group 2: 30 mg/kg/PO; Plasma and brain; Number of animals=12; Animal #13-24. Animals in Group 1 were administered intraperitoneally with solution formulation of PSY-05-00074-001 in 5% NMP, 5% Solutol HS-15 and 90% normal saline at […] dose. Animals in Group 2 were administered orally with solution formulation of PSY-05-00074-001 in 5% NMP, 5% Solutol HS-15 and 90% normal saline at 30 mg/kg dose. Blood samples (approximately 60 μL) were collected under light isoflurane anesthesia from retro orbital plexus at 0.25, 0.5, 1, 2, 4 and 8 hr (IP and PO). Plasma samples were separated by centrifugation of whole blood and stored below −70° C. until bioanalysis. Immediately after collection of blood from intraperitoneal and oral group animals, animals were euthanized with excess CO2 and brain samples were collected from set of two mice at each time point. Brain samples were divided into two parts. Half brain samples were homogenized using ice-cold phosphate buffer saline (pH-7.4) and homogenates were stored below −70±10° C. until analysis. Total homogenate volume was three times the brain weight. Other part of brain was stored below −70±10° C. for further analysis. All samples were processed for analysis by protein precipitation using acetonitrile and analyzed with fit-for-purpose LC/MS/MS method (LLOQ-2.02 ng/mL for plasma and 6.06 ng/g for brain). Pharmacokinetic parameters were calculated using the non-compartmental analysis tool of Phoenix WinNonlin®.
Protocol B: Thirty six mice were included into the study and divided in to three groups as Group 1 (n=12), Group 2 (n=12) and Group 3 (n=12) with n=2 mice per time-point design. Animals in Group 1 were administered intravenously with solution formulation of PSY-05-00414-001 at 5 mg/kg dose. Animals in Group 2 were administered orally with solution formulation of PSY-05-00414-001 at a dose of 5 mg/kg. Animals in Group 3 were administered intraperitoneally with solution formulation of PSY-05-00414-001 at 5 mg/kg dose. The formulation vehicle for all the three groups was 5% NMP, 5% Solutol HS-15 and 90% normal saline. Blood samples (approximately 60 μL) were collected under light isoflurane anesthesia from two mice at 0.25, 0.5, 1, 2, 4 and 8 h. Plasma was harvested by centrifugation of blood and stored at −70±10° C. until analysis. After blood collection, brain was perfused and isolated at 0.25, 0.5, 1, 2, 4 and 8 h. Brain samples were dipped thrice in ice-cold phosphate buffer saline, blotted dry and cut in to two equal portion. Half-brain samples from each time-point were weighed and homogenized using ice-cold phosphate buffer saline with twice volume of brain weight making the total homogenate three volumes and stored below −70±10′° C. until analysis. Remaining half-portions of brain samples was snap freeze and kept in −70±10° C. until further confirmation from client. Plasma and brain samples were quantified by fit-for-purpose LC-MS/MS method (LLOQ: 1.01 ng/mL for plasma and 2.02 ng/mL for brain).
Protocol C: Fifty four male mice were included in study and divided in to three groups as Group 1 (n=18), Group 2 (n=18) and Group 3 (n=18) with 3 mice/time point design. […]

[2] = Method 12: Reaction Biology MAGL enzyme prep, 15 nM enzyme
[3] = Method 13: Reaction Biology MAGL enzyme prep, 12 nM enzyme

Work on Cc1cc(C2CC3(C2)CN(C(=O)c2ccc(F)cc2OC2CC2)C3)n(-c2cc(F)ccc2C)n1 (single isomer, unassigned) [Compound 418, (2-cyclopropoxy-4-fluorophenyl){6-[1-(5-fluoro-2-tolyl)-3-methyl-5-pyrazolyl]-2-aza-2-spiro[3.3]heptyl}methanone] yielded an IC50 (human MAGL; [2]) of 0.05 to 0.15 µM.
For O=C(c1ccc(F)cc1OC1CC1)N1CC2(CC(n3nc(-c4ccccc4C(F)(F)F)cc3C(F)(F)F)C2)C1 (single isomer, unassigned) [Compound 451, (2-cyclopropoxy-4-fluorophenyl)(6-{5-(trifluoromethyl)-3-[o-(trifluoromethyl)phenyl]-1-pyrazolyl}-2-aza-2-spiro[3.3]heptyl)methanone], the IC50 (human MAGL; Method 6: Reaction Biology MAGL enzyme prep, 6 nM enzyme) was 0.05 to 0.15 µM, the AUC(0-t) [1] was 1.2 µg·h/mL and the Cmax [1] was 271 ng/g.
In the case of O=C(c1cc(O)ccc1F)N1CC2(CC(n3ncc(C(F)(F)F)c3-c3ccccc3F)C2)C1 (single isomer, unassigned) [Compound 472], the IC50 (human MAGL; [2]) is reported as 0.05 to 0.15 µM.
With Cc1ccc(F)c(-c2c(C(F)(F)F)cnn2C2CC3(C2)CN(C(=O)c2cc(O)ccc2F)C3)c1 (single isomer, unassigned) [Compound 474, (2-fluoro-5-hydroxyphenyl)(6-(5-(2-fluoro-5-methylphenyl)-4-(trifluoromethyl)-1H-pyrazol-1-yl)-2-azaspiro[3.3]heptan-2-yl)methanone] the IC50 (human MAGL; [2]) was 0.15 to 0.5 µM.
In the case of Cc1cnn(C2CC3(C2)CN(C(=O)c2cc(O)ccc2F)C3)c1-c1cc(F)ccc1F (single isomer, unassigned) [Compound 476, (6-(5-(2,5-Difluorophenyl)-4-methyl-1H-pyrazol-1-yl)-2-azaspiro [3.3]heptan-2-yl) (2-fluoro-5-hydroxyphenyl) methanone], the AUC(0-t) [1] is reported as 0.224 µg·h/mL and the Cmax [1] is reported as 72 ng/g.
Cc1ccc(F)cc1-n1nc(C2CC3(C2)CN(C(=O)c2ccc(F)cc2OC2CC2)C3)cc1C (single isomer, unassigned) [Compound 482, (2-cyclopropoxy-4-fluorophenyl){6-[1-(5-fluoro-2-tolyl)-5-methyl-3-pyrazolyl]-2-aza-2-spiro[3.3]heptyl}methanone] gave an IC50 (human MAGL; [2]) of 0.5 to 1 µM.
In the case of Cc1ccc(F)cc1-c1cc(C2CC2)nn1C1CC2(C1)CN(C(=O)c1cc(O)ccc1F)C2 (single isomer, unassigned) [Compound 490, (6-(3-cyclopropyl-5-(5-fluoro-2-methylphenyl)-1H-pyrazol-1-yl)-2-azaspiro [3.3]heptan-2-yl) (2-fluoro-5-hydroxyphenyl) methanone], the IC50 (human MAGL; [3]) is reported as 0.05 to 0.15 µM.
In the case of Cc1ccc(F)cc1-c1cc(C2CC2)n(C2CC3(C2)CN(C(=O)c2cc(O)ccc2F)C3)n1 (single isomer, unassigned) [Compound 491, (6-(5-cyclopropyl-3-(5-fluoro-2-methylphenyl)-1H-pyrazol-1-yl)-2-azaspiro [3.3]heptan-2-yl)(2-fluoro-5-hydroxyphenyl)methanone], the IC50 (human MAGL; [3]) is reported as less than 0.05 µM.
In the case of O=C(c1cc(O)ccc1F)N1CC2(CC(n3ncc(C4CC4)c3-c3ccccc3F)C2)C1 (single isomer, unassigned) [Compound 492, (6-(4-Cyclopropyl-5-(2-fluorophenyl)-1H-pyrazol-1-yl)-2-azaspiro [3.3]heptan-2-yl) (2-fluoro-5-hydroxyphenyl) methanone], the IC50 (human MAGL; [2]) is reported as 0.05 to 0.15 µM.
In the case of O=C(c1cc(O)ccc1F)N1CC2(CC(n3nccc3-c3ccccc3C(F)(F)F)C2)C1 (single isomer, unassigned) [Compound 526, (2-fluoro-5-hydroxyphenyl)(6-(5-(2-(trifluoromethyl)phenyl)-1H-pyrazol-1-yl)-2-azaspiro [3.3]heptan-2-yl)methanone], the IC50 (human MAGL; [2]) is reported as 0.05 to 0.15 µM.
For Cc1cc(C2CC3(C2)CN(C(=O)c2cc(O)ccc2F)C3)n(-c2ccccc2C)n1 [Compound 74, (2-fluoro-5-hydroxyphenyl)(6-(3-methyl-1-(o-tolyl)-1H-pyrazol-5-yl)-2-azaspiro[3.3]heptan-2-yl)methanone], the “AUClast” value ([1]; 30 mg/kg, Protocol A) was 0.11652 µg·h/mL.
Cc1ccccc1-n1nccc1C1CC2(C1)CN(C(=O)c1cc(O)ccc1F)C2 [Compound 367, (2-fluoro-5-hydroxyphenyl) (6-(1-(o-tolyl)-1H-pyrazol-5-yl)-2-azaspiro [3.3]heptan-2-yl) methanone] showed an IC50 (human MAGL; Method 14: Reaction Biology MAGL enzyme prep, 6 nM enzyme (Conc "0", Source "0")) of 0.05 to 0.15 µM.
